The test system of assay [1] is Human immunodeficiency virus 1. Description: HIV antiviral activity. It is filed as functional.
Assay [2] has as its target Human immunodeficiency virus type 1 reverse transcriptase (Human immunodeficiency virus 1) (UniProt Q72547). Description: Antiviral activity as inhibition of HIV reverse transcriptase; Inactive.
Assay [3] has as its target Human immunodeficiency virus type 1 protease (Human immunodeficiency virus 1) (UniProt Q72874). Put plainly: Antiviral activity as inhibition of HIV protease; Inactive.
For assay [4], the target named is Human immunodeficiency virus type 1 integrase (Human immunodeficiency virus 1) (UniProt Q7ZJM1). Description: Antiviral activity as inhibition of HIV integrase; Inactive.
For assay [5], the target named is Human immunodeficiency virus type 1 reverse transcriptase (Human immunodeficiency virus 1) (UniProt Q72547). Description: Antiviral activity as inhibition of HIV reverse transcriptase; Active.
The target of assay [6] is Human immunodeficiency virus type 1 protease (Human immunodeficiency virus 1) (UniProt Q72874). Put plainly: Antiviral activity as inhibition of HIV protease; Active.

Active and inactive are the calls of the source. The calls are words filed in the database; no cut-off is given here.

Sequence of Human immunodeficiency virus type 1 integrase (Human immunodeficiency virus 1) (Q7ZJM1 as listed by the source): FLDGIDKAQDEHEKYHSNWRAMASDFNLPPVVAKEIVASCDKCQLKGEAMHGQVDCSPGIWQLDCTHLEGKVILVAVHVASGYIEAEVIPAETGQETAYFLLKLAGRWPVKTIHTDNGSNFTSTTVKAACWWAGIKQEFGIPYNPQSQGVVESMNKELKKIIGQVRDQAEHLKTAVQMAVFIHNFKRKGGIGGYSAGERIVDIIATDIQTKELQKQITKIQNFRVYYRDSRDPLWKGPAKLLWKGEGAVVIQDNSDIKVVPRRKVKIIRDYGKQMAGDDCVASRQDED

The compound `CCC1OC1C` (centres undefined) had an Average activity in assay [1] of 56.
On to `CC1C(=O)NC(=O)N(COCCO)C1Sc1cccc(O)c1` (centres undefined), for which the result in assay [2] was inactive.
With `CC(=O)NC(=O)N(C)C1CCC(N=[N+]=[N-])O1` (centres undefined), the Average activity in assay [1] is 64.
Compound `C=CC(=C\C)/N=C(\C)S` displayed an Average activity in assay [1] of 60.
`O=C(O)C1Cc2cc3c(cc2C(O)C1CO)OCO3` (centres undefined): in assay [3], the outcome was inactive.
On to `O=c1c(O)c(-c2ccc(O)cc2)oc2cc(O)cc(O)c12`, for which, in assay [4], the result was inactive.
In assay [1], `CCC(F)CC` registered an Average activity of 56.
In the case of `C=C/C(=C\C)NC(C)=O`, in assay [1], the Average activity amounted to 60.
Same read-out and setting: for `C=C/C=C\C=C\C(=O)/C=C/C` the value was 51; for `C=C/C=C\C=C\[S+]([O-])/C=C/C` (centres undefined), 51; for `C=C/C=C\C=C\[PH](=O)/C=C/C` (centres undefined), 51.
In assay [1], `C=C/C(=C\C)C(=O)N/C(C)=C/C` gave an Average activity of 37.
Take `CCN1c2ccccc2C2NC=C(C)C2c2ccc(OC)cc21` (centres undefined): in assay [5], the outcome was Active.
As to `CCC(Cl)CC`, in assay [1], the Average activity was found to be 56.
As to `CCCCCCc1cc2c(cc1O)CC(=O)C(C(c1ccccc1)C1COc3cc(O)c(CCCCCC)c(O)c3C1)=C2O` (centres undefined), in assay [6], the result was Active.
In the case of `CCOCN1C(=O)NC(=O)C(C)C1Sc1ccccc1` (centres undefined), the outcome in assay [5] was Active.
In assay [1], `CCC(I)CC` showed an Average activity of 56.
On the same count and under the same terms, for `C=C/C=C/C=C/S(=O)(=O)/C=C/C` the value was 51.
Take `O=C1C2=C(C(=O)c3ccccc31)C(O)(S(=O)(=O)O)C(O)(S(=O)(=O)O)C1N=CC=CC21` (centres undefined): the outcome in assay [6] was Active.

Values taken from ChEMBL document CHEMBL1132617, “Diversity analysis of 14 156 molecules tested by the National Cancer Institute for anti-HIV activity using the quantitative structure-activity relational expert system MCASE” (J Med Chem, 1999).
